For the experiment, the target named is SCRIB PDZ2 H928A (Homo sapiens, UniProt Q14160, H928A). The experiment in a line: biochemical. The format is binding.

Ends that are not written are not given here.

Chain of SCRIB PDZ2 H928A (Q14160 860-950 H928A limits assumed): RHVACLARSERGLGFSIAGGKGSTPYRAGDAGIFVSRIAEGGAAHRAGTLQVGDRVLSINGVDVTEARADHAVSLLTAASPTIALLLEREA

Take KMARTIESEV [Vietnam (ESEV)]: binding was put at a Kd of 3.6 ± 0.7 µM.

For orientation: Kd means the constant that tells how readily two partners part at equilibrium. A high value points to lower affinity.

(Values after article PMC8954747 (Viruses, 2022).)
